Experimental data taken from patent US11311559B2, “Compositions and methods for enhanced delivery of antiviral agents” (POVIVA CORP., priority 2020, dated 2022).

Assay: Plasma exposure after oral administration of formulations in rats (LC-MS/MS, WinNonlin)
Method: In this study, the exposure and distribution of darunavir and efavirenz were evaluated following oral administration in male Sprague-Dawley rats. Four cohorts of 10 rats each were used in this study. The first cohort involved darunavir using the disclosed formulations and the second cohort darunavir in a control formulation. The third cohort involved efavirenz using the disclosed formulations and the fourth cohort efavirenz in a control formulation.
Formulations were administered orally (PO) at 10 mg/kg of darunavir or efavirenz. Following dosing, blood, urine and fecal samples were collected up to 8-hour post dose (groups 1, 3, 5, and 7) or 24-hour post dose (groups 2, 4, 6, and 8). Brain tissue was collected at 8 hours or 24 hours, following the 8 hour or 24-hour urine and feces sample collection. Plasma, urine, feces, and brain tissue concentrations of the analytes were determined by LC-MS/MS. Plasma pharmacokinetic parameters were determined using WinNonlin (v8.0) software.
Plasma, urine, feces, and brain tissue samples were extracted and analyzed using the methods described as follows.
Analytical stock solutions (1.00 mg/mL of the free drug) were prepared in DMSO. Sample Homogenization Brain tissue and feces samples were homogenized with a Virsonic 100 ultrasonic homogenizer. Each brain tissue sample was first weighed, and then an appropriate volume of 20:80 methanol:water was added to make a 2 mL/gram sample. Samples were then homogenized on ice, and stored frozen until analysis. Feces samples were homogenized with 20:80 MeOH:water (8 mL/gram of tissue) prior to extraction. Standard Preparation (Plasma, Urine, and Brain) Standards were prepared in rat plasma containing sodium heparin as the anticoagulant, or in blank tissue homogenate. Working solutions were prepared in 50:50 acetonitrile:water. […] Diluted urine samples were quantified against the rat plasma calibration curve. Brain and feces tissue homogenates were quantified against calibration curves prepared in matched blank tissue homogenate.

plasma concentration of disclosed compositions versus control formulations (rat, in vivo) | Structure (SMILES) | plasma concentration of disclosed compositions versus control formulations (disclosed compositions compared with compositions without the bioavailability agents) | average plasma concentration (test animals (disclosed test formulation), at 1 hour)
 | CC(C)CN(C[C@@H](O)[C@H](Cc1ccccc1)NC(=O)O[C@H]1CO[C@H]2OCC[C@H]21)S(=O)(=O)c1ccc(N)cc1 [darunavir] | double | approximately 306 ng/mL
higher levels | O=C1Nc2ccc(Cl)cc2[C@@](C#CC2CC2)(C(F)(F)F)O1 [efavirenz] |  | 
